For data set [1] the following is noted: given dose 50 mg/kg; adjuvant given with curcumin; cited from earlier work.
The test system of a further data set is HCT-116 human xenograft. Nature of the data set: In vivo anti-cancer activity in human colorectal (HCT-116) xenograft model in SCID mice. As to the method:
Human colorectal (HCT-116) xenograft model in SCID mice
Five-week-old female mice purchased from the Advanced Centre for Treatment, Research and Education in Cancer (ACTREC) were used for in vivo experiments. The Institutional Animal Ethics Committee (IAEC) approved the in vivo study. Animals were injected with 1×10^6 HCT-116 cells subcutaneously in the flank region. Animals were monitored daily during the period between inoculation and palpable tumor growth. Tumor size was measured with a digital Vernier caliper and tumor-bearing mice were randomized into control and treatment groups (n=8), when the tumor volume was attained ˜100 mm^3. […] Tumor volume and was body weight was measured twice weekly. The following formula was used to calculate the tumor volume: Tumor volume=[…]. Percent reduction in tumor growth was calculated with respect to the Vehicle treated group.

For `CCCCC[C@H](O)CC(=O)CCc1ccc(O)c(OC)c1` [gingerol], the “enhancement of the bioavailability of curcumin” value in data set [1] is 43%.

`O=C(/C=C/C=C/c1ccc2c(c1)OCO2)N1CCCCC1` [piperine]: the “enhancement of the bioavailability of curcumin” value in data set [1] is given as 33%.

For the compound `O=C(CCCCCCC(=O)Nc1ccccc1)NO` [Vorinostat], the “% Redn. (percent reduction in tumor growth with respect to the Vehicle treated group)” value in the data set with HCT-116 human xenograft (150 mg/kg oral once daily for 28 days) was 47%. In addition, in the data set with HCT-116 human xenograft (150 mg/kg oral once daily, Day 0), the “Tumor volume, Mean ± SE, Day 0” value was determined as 131.6 ± 23.1 mm^3. For the same compound, the “Tumor volume, Mean ± SE, Day 4” value in the data set with HCT-116 human xenograft (150 mg/kg oral once daily, Day 4) is recorded as 236.6 ± 42.7 mm^3. Further, the “Tumor volume, Mean ± SE, Day 8” value with HCT-116 human xenograft (150 mg/kg oral once daily, Day 8) is on record as 334.4 ± 52.3 mm^3. Besides, in the data set with HCT-116 human xenograft (150 mg/kg oral once daily, Day 12), the “Tumor volume, Mean ± SE, Day 12” value is 460.6 ± 76.0 mm^3. Moreover, the “Tumor volume, Mean ± SE, Day 16” value with HCT-116 human xenograft (150 mg/kg oral once daily, Day 16) worked out at 544.6 ± 79.1 mm^3. The “Tumor volume, Mean ± SE, Day 19” value with HCT-116 human xenograft (150 mg/kg oral once daily, Day 19) is 669.6 ± 107.0 mm^3. The “Tumor volume, Mean ± SE, Day 22” value with HCT-116 human xenograft (150 mg/kg oral once daily, Day 22) stood at 726.0 ± 120.8 mm^3. In the data set with HCT-116 human xenograft (150 mg/kg oral once daily, Day 26), the “Tumor volume, Mean ± SE, Day 26” value stood at 916.6 ± 157.9 mm^3. For the same compound, the “Tumor volume, Mean ± SE, Day 29” value with HCT-116 human xenograft (150 mg/kg oral once daily, Day 29) is reported as 979.1 ± 157.2 mm^3.
